Patent US20210277020A1, “HETEROCYCLIC COMPOUNDS AS MONOACYLGLYCEROL LIPASE INHIBITORS” (Hoffmann-La Roche Inc., priority 2018, published 2021)

Target: T1, MAGL (Homo sapiens, UniProt Q99685)
T1 sequence (Q99685 1-303): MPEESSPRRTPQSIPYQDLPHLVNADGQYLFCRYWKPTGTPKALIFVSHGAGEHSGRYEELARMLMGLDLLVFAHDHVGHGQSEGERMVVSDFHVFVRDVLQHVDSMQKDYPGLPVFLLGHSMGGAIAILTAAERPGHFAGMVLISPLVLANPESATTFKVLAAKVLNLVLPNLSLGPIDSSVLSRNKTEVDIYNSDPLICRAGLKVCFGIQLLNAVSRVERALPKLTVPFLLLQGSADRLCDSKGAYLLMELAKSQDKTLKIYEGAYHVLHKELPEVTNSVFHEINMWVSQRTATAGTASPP
Experiment: 2-AG assay: MAGL inhibition followed by hydrolysis of 2-arachidonoylglycerol to arachidonic acid, mass spectrometry
Format: biochemical
Settings: measured in 2-AG assay (footnote [a]); substrate 2-arachidonoylglycerol 8 μM, 30 min at RT
Excerpt: Alternatively, compounds were profiled for MAGL inhibitory activity by determining the enzymatic activity by following the hydrolysis of the natural substrate, 2-arachidonoylglycerol, resulting in arachidonic acid, which can be followed by mass spectrometry. This assay is hereinafter abbreviated “2-AG assay”.
Detection by mass spectrometry in the present 2-AG assay has the advantage over known optical assays that the natural enzyme substrate, 2-arachidonoylglycerol, can be used instead of structurally unrelated compounds needed for optical readouts (such as 4-NPA). It thereby delivers more relevant data for activity determination, reduces false positives and generally adds to data quality. In addition, this assay reduces the analysis time from about 10 minutes per sample with standard methods to under 10 seconds per sample. This allows for using the present 2-AG assay in a method for high throughput screening of compounds for their MAGL inhibitory activity.
The 2-AG assay was carried out in 384 well assay plates (PP, Greiner Cat #784201) in a total volume of 20 μL. Compound dilutions were made in 100% DMSO (VWR Chemicals 23500.297) in a polypropylene plate in 3-fold dilution steps to give a final concentration range in the assay from 12.5 μM to […]. 0.25 μL compound dilutions (100% DMSO) were added to 9 μL MAGL in assay buffer (50 mM TRIS (GIBCO, 15567-027), 1 mM EDTA (Fluka, 03690-100 mL), 0.01% (v/v) Tween. After shaking, the plate was incubated for 15 min at RT. To start the reaction, 10 μL 2-arachidonoylglycerol in assay buffer was added. The final concentrations in the assay was […] and 8 μM 2-arachidonoylglyerol. After shaking and 30 min incubation at RT, the reaction was quenched by the addition of 40 μL of acetonitrile containing 4 μM of d8-arachidonic acid. The amount of arachidonic acid was traced by an online SPE system (Agilent Rapidfire) coupled to a triple quadrupole mass spectrometer (Agilent 6460). A C18 SPE cartridge (G9205A) was used in an acetonitrile/water liquid setup. The mass spectrometer was operated in negative electrospray mode following the mass transitions 303.1→259.1 for arachidonic acid and 311.1→267.0 for d8-arachidonic acid. The activity of the compounds was calculated based on the ratio of intensities [arachidonic acid/d8-arachidonic acid].
In a preferred embodiment, the method for determining the MAGL inhibitory activity of a test compound according to the invention, comprises: • (i) providing a solution of a test compound; • (ii) adding the solution of step (i) to a solution of MAGL; • (iii) shaking the mixture obtained from step (ii); • (iv) incubating the mixture obtained from step (iii); • (v) adding a solution of 2-arachidonoylglycerol; • (vi) incubating the mixture obtained from step (v); • (vii) adding a solution of d8-arachidonic acid; and • (viii) determining the ratio of intensities arachidonic acid/d8-arachidonic acid using a mass spectrometer.

Structure (SMILES) | IC50
O=C1CO[C@H]2CCN(C(=O)N3CCC(C#Cc4ccc(F)cc4Cl)CC3)C[C@H]2N1 [Example 128, (+)-(4aR,8aS)-6-[4-[2-(2-Chloro-4-fluorophenyl)ethynyl]piperidine-1-carbonyl]-4,4a,5,7,8,8a-hexahydropyrido[4,3-b][1,4]oxazin-3-one] | 23 nM
O=C1CO[C@H]2CCN(C(=O)N3CCC(C#Cc4ccc(Cl)cc4)CC3)C[C@H]2N1 [Example 130, (+)-(4aR,8aS)-6-[4-[2-(4-Chlorophenyl)ethynyl]piperidine-1-carbonyl]-4,4a,5,7,8,8a-hexahydropyrido[4,3-b][1,4]oxazin-3-one] | 82 nM
O=C1CO[C@H]2CCN(C(=O)N3CCC(C#Cc4ccc(Cl)cc4Cl)CC3)C[C@H]2N1 [Example 131, (+)-(4aR,8aS)-6-[4-[2-(2,4-Dichlorophenyl)ethynyl]piperidine-1carbonyl]-4,4a,5,7,8,8a-hexahydropyrido[4,3-b][1,4]oxazin-3-one] | 22 nM
O=C1CO[C@H]2CCN(C(=O)N3CCC(O)(C#Cc4ccccc4Cl)CC3)C[C@H]2N1 [Example 132, (+)-(4aR,8aS)-6-[4-[2-(2-Chlorophenyl)ethynyl]-4-hydroxypiperidine-1-carbonyl]-4,4a,5,7,8,8a-hexahydropyrido[4,3-b][1,4]oxazin-3-one] | 889 nM
O=C1CO[C@H]2CCN(C(=O)N3CC(C#Cc4ccc(F)cc4Cl)C3)C[C@H]2N1 [Example 135, (+)-(4aR,8aS)-6-[3-[2-(2-Chloro-4-fluorophenyl)ethynyl]azetidine-1-carbonyl]-4,4a,5,7,8,8a-hexahydropyrido[4,3-b][1,4]oxazin-3-one] | 13 nM
O=C1CO[C@H]2CCN(C(=O)N3CC(CSc4ccc(C(F)(F)F)cc4Cl)C3)C[C@H]2N1 [Example 148, (4aR,8aS)-6-[3-[[2-Chloro-4-(trifluoromethyl)phenyl]sulfanylmethyl]azetidine-1-carbonyl]-4,4a,5,7,8,8a-hexahydropyrido[4,3-b][1,4]oxazin-3-one] | 2 nM
O=C1CO[C@H]2CCN(C(=O)N3CC(CS(=O)(=O)c4ccc(C(F)(F)F)cc4Cl)C3)C[C@H]2N1 [Example 152, (4aR,8aS)-6-[3-[[2-Chloro-4-(trifluoromethyl)phenyl]sulfonylmethyl]azetidine-1-carbonyl]-4,4a,5,7,8,8a-hexahydropyrido[4,3-b][1,4]oxazin-3-one] | 655 nM
O=C1CO[C@H]2CCN(C(=O)N3CC(C#Cc4c(Cl)cccc4Cl)C3)C[C@H]2N1 [Example 157, (+)-(4aR,8aS)-6-(3-((2,6-Dichlorophenyl)ethynyl)azetidine-1-carbonyl)hexahydro-2H-pyrido[4,3-b][1,4]oxazin-3(4H)-one] | 5 nM
O=C1CO[C@H]2CCN(C(=O)N3CC(C#Cc4ccc(C(F)(F)F)c(Cl)c4)C3)C[C@H]2N1 [Example 160, (4aR,8aS)-6-(3-((3-Chloro-4-(trifluoromethyl)phenyl)ethynyl)azetidine-1-carbonyl)hexahydro-2H-pyrido[4,3-b][1,4]oxazin-3(4H)-one] | 1 nM
COc1ccccc1C#CC1CN(C(=O)N2CC[C@@H]3OCC(=O)N[C@@H]3C2)C1 [Example 163, (4aR,8aS)-6-(3-((2-Methoxyphenyl)ethynyl)azetidine-1-carbonyl)hexahydro-2H-pyrido[4,3-b][1,4]oxazin-3(4H)-one] | 49 nM

Continued by falling IC50, values first:

IC50 | Structure (SMILES)
2640 nM | O=C1CO[C@H]2CCN(C(=O)N3CC(S(=O)(=O)c4ccc(C(F)(F)F)cc4Cl)C3)C[C@H]2N1 [Example 144, (4aR,8aS)-6-[3-[2-Chloro-4-(trifluoromethyl)phenyl]sulfonylazetidine-1-carbonyl]-4,4a,5,7,8,8a-hexahydropyrido[4,3-b][1,4]oxazin-3-one]
308 nM | O=C1CO[C@H]2CCN(C(=O)N3CCC(C#Cc4ncccc4Cl)CC3)C[C@H]2N1 [Example 127, (+)-(4aR,8aS)-6-[4-[2-(3-Chloropyridin-2-yl)ethynyl]piperidine-1-carbonyl]-4,4a,5,7,8,8a-hexahydropyrido[4,3-b][1,4]oxazin-3-one]
105 nM | O=C1CO[C@H]2CCN(C(=O)N3CC(Sc4ccc(C(F)(F)F)cc4Cl)C3)C[C@H]2N1 [Example 143, (4aR,8aS)-6-[3-[2-Chloro-4-(trifluoromethyl)phenyl]sulfanylazetidine-1-carbonyl]-4,4a,5,7,8,8a-hexahydropyrido[4,3-b][1,4]oxazin-3-one]
103 nM | O=C1CO[C@H]2CCN(C(=O)N3CCC(C#Cc4cccc(Cl)c4)CC3)C[C@H]2N1 [Example 129, (+)-(4aR,8aS)-6-[4-[2-(3-Chlorophenyl)ethynyl]piperidine-1-carbonyl]-4,4a,5,7,8,8a-hexahydropyrido[4,3-b][1,4]oxazin-3-one]
34 nM | O=C1CO[C@H]2CCN(C(=O)N3CC(C#Cc4c(F)cccc4F)C3)C[C@H]2N1 [Example 159, (4aR,8aS)-6-(3-((2,6-Difluorophenyl)ethynyl)azetidine-1-carbonyl)hexahydro-2H-pyrido[4,3-b][1,4]oxazin-3(4H)-one]
9 nM | O=C1CO[C@H]2CCN(C(=O)N3CC(C#Cc4ccccc4Cl)C3)C[C@H]2N1 [Example 133]
8 nM | O=C1CO[C@H]2CCN(C(=O)N3CC(C#Cc4cccc(Cl)c4)C3)C[C@H]2N1 [Example 165, (4aR,8aS)-6-[3-[2-(3-Chlorophenyl)ethynyl]azetidine-1-carbonyl]-4,4a,5,7,8,8a-hexahydropyrido[4,3-b][1,4]oxazin-3-one]
7 nM | O=C1CO[C@H]2CCN(C(=O)N3CC(SCc4ccc(C(F)(F)F)cc4F)C3)C[C@H]2N1 [Example 156, (4aR,8aS)-6-[3-[[2-Fluoro-4-(trifluoromethyl)phenyl]methylsulfanyl]azetidine-1-carbonyl]-4,4a,5,7,8,8a-hexahydropyrido[4,3-b][1,4]oxazin-3-one]
5 nM | O=C1CO[C@H]2CCN(C(=O)N3CC(C#Cc4ccc(Cl)cc4Cl)C3)C[C@H]2N1 [Example 134, (+)-(4aR,8aS)-6-(3-((2,4-Dichlorophenyl)ethynyl)azetidine-1-carbonyl)hexahydro-2H-pyrido[4,3-b][1,4]oxazin-3(4H)-one]
5 nM | O=C1CO[C@H]2CCN(C(=O)N3CC(C#Cc4ccc(C(F)(F)F)cc4F)C3)C[C@H]2N1 [Example 158, (4aR,8aS)-6-[3-[2-[2-Fluoro-4-(trifluoromethyl)phenyl]ethynyl]azetidine-1-carbonyl]-4,4a,5,7,8,8a-hexahydropyrido[4,3-b][1,4]oxazin-3-one]
5 nM | O=C1CO[C@H]2CCN(C(=O)N3CC(C#Cc4c(F)cccc4Cl)C3)C[C@H]2N1 [Example 161, (4aR,8aS)-6-(3-((2-Chloro-6-fluorophenyl)ethynyl)azetidine-1-carbonyl)hexahydro-2H-pyrido[4,3-b][1,4]oxazin-3(4H)-one]
3 nM | O=C1CO[C@H]2CCN(C(=O)N3CC(C#Cc4ccc(Cl)cc4C(F)(F)F)C3)C[C@H]2N1 [Example 164, (4aR,8aS)-6-[3-[2-[4-Chloro-2-(trifluoromethyl)phenyl]ethynyl]azetidine-1-carbonyl]-4,4a,5,7,8,8a-hexahydropyrido[4,3-b][1,4]oxazin-3-one]
1 nM | O=C1CO[C@H]2CCN(C(=O)N3CC(C#Cc4ccc(C5CC5)cc4Cl)C3)C[C@H]2N1 [Example 162, (4aR,8aS)-6-(3-((2-Chloro-4-cyclopropylphenyl)ethynyl)azetidine-1-carbonyl)hexahydro-2H-pyrido[4,3-b][1,4]oxazin-3(4H)-one]
